From paper PMC4767141, “Discovery of Potent, Orally Bioavailable, Small-Molecule Inhibitors of WNT Signaling from a Cell-Based Pathway Screen” (Journal of Medicinal Chemistry, 2015) come the findings set out here.

One series has as its target T1, PAK3 (Homo sapiens, UniProt O75914).
T1 construct: purchased Millipore KinaseProfiler (kinases); Cerep (receptors and ion channels)
The series is described as follows: Millipore kinase panel. The series is classed as biochemical. The settings on record: read-out: % Control.

Another series has as its target T2, LYN (Homo sapiens, UniProt P07948).
T2 construct: purchased Millipore KinaseProfiler (kinases); Cerep (receptors and ion channels)
In words: Millipore kinase panel. It counts as biochemical. Particulars: ATP at Km, read-out: % Control.

Another series concerns Cl- channel (GABA-gated). The series is described as follows: CEREP binding panel. The settings on record: 10 μM, antagonist radioligand.
The nature of a further series: Plasma stability. It counts as in vitro ADME.
A short description of series [1]: In vitro reactive metabolite assay. It counts as in vitro ADME. The settings on record: data not shown.
The next series concerns the target T3, GSK3BETA (Homo sapiens, UniProt P49841).
T3 construct: purchased Millipore
In words: Millipore kinase panel. It counts as biochemical. Particulars: read-out: % Control.

Another series deals with T4, MAPK2 (Homo sapiens, UniProt P28482).
T4 construct: purchased Millipore KinaseProfiler (kinases); Cerep (receptors and ion channels)
In words: Millipore kinase panel. The series is classed as biochemical. The settings on record: ATP at Km, read-out: % Control.

The next series concerns the target T5, CKIT(D816H) (Homo sapiens, UniProt P10721, D816H).
T5 construct: purchased Millipore KinaseProfiler (kinases); Cerep (receptors and ion channels)
In words: Millipore kinase panel. It counts as biochemical. Particulars: read-out: % Control.

The target in a further series is T6, FLT3(D835Y) (Homo sapiens, UniProt P36888, D835Y).
T6 construct: purchased Millipore KinaseProfiler (kinases); Cerep (receptors and ion channels)
In words: Millipore kinase panel. The series is classed as biochemical. The settings on record: read-out: % Control.

A further series addresses T7, TIE2(R849W) (Homo sapiens, UniProt Q02763, R849W).
T7 construct: purchased Millipore KinaseProfiler (kinases); Cerep (receptors and ion channels)
In words: Millipore kinase panel. It counts as biochemical. Particulars: read-out: % Control.

In the next series the target is T8, PKCBETAI (Homo sapiens, UniProt P05771).
T8 construct: purchased Millipore KinaseProfiler (kinases); Cerep (receptors and ion channels)
The series is described as follows: Millipore kinase panel. The series is classed as biochemical. Particulars: read-out: % Control.

Another series deals with T9, PKCIOTA (Homo sapiens, UniProt P41743).
T9 construct: purchased Millipore KinaseProfiler (kinases); Cerep (receptors and ion channels)
In words: Millipore kinase panel. It counts as biochemical. Particulars: read-out: % Control.

A further series concerns the target T10, PKBBETA (Homo sapiens, UniProt P31751).
T10 construct: purchased Millipore KinaseProfiler (kinases); Cerep (receptors and ion channels)
The series is described as follows: Millipore kinase panel. The series is classed as biochemical. Particulars: read-out: % Control.

A further series deals with T11, AURKA (Homo sapiens, UniProt O14965).
T11 construct: purchased Millipore KinaseProfiler (kinases); Cerep (receptors and ion channels)
The series is described as follows: Millipore kinase panel. The settings on record: read-out: % Control. It counts as biochemical.

Another series deals with T12, CK1GAMMA3 (Homo sapiens, UniProt Q9Y6M4).
T12 construct: purchased Millipore KinaseProfiler (kinases); Cerep (receptors and ion channels)
T12 sequence (Q9Y6M4 whole entry): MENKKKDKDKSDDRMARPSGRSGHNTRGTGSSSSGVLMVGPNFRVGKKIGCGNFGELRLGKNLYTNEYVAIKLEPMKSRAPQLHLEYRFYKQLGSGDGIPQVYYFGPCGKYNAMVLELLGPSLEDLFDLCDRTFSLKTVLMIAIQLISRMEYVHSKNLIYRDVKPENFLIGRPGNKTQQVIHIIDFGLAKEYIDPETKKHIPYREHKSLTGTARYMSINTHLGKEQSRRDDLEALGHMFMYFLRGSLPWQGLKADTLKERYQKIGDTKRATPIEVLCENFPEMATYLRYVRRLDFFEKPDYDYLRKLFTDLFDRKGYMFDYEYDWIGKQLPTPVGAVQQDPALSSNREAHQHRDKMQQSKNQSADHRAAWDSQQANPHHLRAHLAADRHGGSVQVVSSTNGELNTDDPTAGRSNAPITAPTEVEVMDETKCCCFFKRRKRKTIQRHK
The series is described as follows: Millipore kinase panel. The series is classed as biochemical. Particulars: read-out: % Control.

Another series deals with T13, PKCEPSILON (Homo sapiens, UniProt Q02156).
T13 construct: purchased Millipore KinaseProfiler (kinases); Cerep (receptors and ion channels)
T13 sequence (Q02156 whole entry): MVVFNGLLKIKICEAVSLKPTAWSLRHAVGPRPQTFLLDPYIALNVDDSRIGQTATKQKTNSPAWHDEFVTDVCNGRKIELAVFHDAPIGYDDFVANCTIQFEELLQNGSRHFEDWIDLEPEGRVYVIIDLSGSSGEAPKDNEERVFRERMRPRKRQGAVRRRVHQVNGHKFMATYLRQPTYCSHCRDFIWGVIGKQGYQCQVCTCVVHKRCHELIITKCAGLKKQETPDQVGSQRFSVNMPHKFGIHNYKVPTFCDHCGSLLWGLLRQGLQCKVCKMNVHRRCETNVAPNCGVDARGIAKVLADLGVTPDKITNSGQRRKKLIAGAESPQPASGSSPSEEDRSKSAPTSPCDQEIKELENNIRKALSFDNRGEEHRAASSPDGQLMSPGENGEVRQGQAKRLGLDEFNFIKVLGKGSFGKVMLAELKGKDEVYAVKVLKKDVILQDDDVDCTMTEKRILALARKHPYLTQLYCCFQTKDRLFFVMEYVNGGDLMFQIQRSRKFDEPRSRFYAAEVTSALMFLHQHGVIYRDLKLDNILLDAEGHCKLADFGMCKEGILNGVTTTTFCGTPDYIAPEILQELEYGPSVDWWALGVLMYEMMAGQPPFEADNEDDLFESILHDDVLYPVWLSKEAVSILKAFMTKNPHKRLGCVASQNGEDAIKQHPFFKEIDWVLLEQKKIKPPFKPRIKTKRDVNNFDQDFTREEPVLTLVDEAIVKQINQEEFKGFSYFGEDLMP
In words: Millipore kinase panel. It counts as biochemical. The settings on record: read-out: % Control.

For a further series, the target named is CYP450 2B8 (Homo sapiens, UniProt P20813). In words: CYP450 inhibition.
CYP450 2B8, sequence (P20813 whole entry): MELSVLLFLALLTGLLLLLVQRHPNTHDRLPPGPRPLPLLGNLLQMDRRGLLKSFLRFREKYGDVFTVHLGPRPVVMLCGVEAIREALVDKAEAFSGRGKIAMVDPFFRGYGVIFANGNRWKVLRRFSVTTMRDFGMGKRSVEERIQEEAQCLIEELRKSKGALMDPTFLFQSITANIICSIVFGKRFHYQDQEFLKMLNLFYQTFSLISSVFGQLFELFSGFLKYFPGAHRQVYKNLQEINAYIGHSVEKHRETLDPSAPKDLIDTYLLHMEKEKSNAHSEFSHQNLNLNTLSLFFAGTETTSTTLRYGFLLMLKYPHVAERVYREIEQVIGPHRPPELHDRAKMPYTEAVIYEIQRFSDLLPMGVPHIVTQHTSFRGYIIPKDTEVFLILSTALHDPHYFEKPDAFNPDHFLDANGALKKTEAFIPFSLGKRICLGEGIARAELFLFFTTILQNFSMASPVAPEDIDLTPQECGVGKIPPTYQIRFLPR
The target in the next series is T14, FMS(Y969C) (Homo sapiens, UniProt P07333, Y969C).
T14 construct: purchased Millipore KinaseProfiler (kinases); Cerep (receptors and ion channels)
The series is described as follows: Millipore kinase panel. The series is classed as biochemical. Particulars: read-out: % Control.

Another series relates to BZD (central). In words: CEREP binding panel. Particulars: 10 μM, agonist radioligand.
For the next series, the target named is T15, P70S6K (Homo sapiens, UniProt P23443).
T15 construct: purchased Millipore KinaseProfiler (kinases); Cerep (receptors and ion channels)
In words: Millipore kinase panel. The series is classed as biochemical. Particulars: read-out: % Control.

For a further series, the target named is T16, NEK11 (Homo sapiens, UniProt Q8NG66).
T16 construct: purchased Millipore KinaseProfiler (kinases); Cerep (receptors and ion channels)
T16 sequence (Q8NG66 whole entry): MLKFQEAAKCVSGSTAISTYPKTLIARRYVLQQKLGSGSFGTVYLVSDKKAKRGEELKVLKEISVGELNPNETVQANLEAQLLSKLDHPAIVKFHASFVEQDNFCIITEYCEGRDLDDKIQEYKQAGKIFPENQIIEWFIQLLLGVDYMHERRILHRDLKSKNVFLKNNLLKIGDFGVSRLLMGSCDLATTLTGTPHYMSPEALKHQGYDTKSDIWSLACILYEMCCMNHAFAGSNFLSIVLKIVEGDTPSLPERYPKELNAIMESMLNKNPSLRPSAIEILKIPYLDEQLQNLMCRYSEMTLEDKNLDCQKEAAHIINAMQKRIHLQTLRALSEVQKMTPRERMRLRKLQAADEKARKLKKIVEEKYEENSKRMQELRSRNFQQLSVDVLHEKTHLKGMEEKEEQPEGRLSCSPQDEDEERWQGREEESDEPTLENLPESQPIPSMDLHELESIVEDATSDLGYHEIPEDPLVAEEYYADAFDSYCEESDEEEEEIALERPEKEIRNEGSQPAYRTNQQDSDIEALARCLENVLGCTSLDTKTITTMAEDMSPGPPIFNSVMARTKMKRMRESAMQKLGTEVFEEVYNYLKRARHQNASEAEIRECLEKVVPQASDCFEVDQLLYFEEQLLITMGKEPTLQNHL
In words: Millipore kinase panel. The series is classed as biochemical. Particulars: read-out: % Control.

Another series addresses T17, CKIT(V560G) (Homo sapiens, UniProt P10721, V560G).
T17 construct: purchased Millipore KinaseProfiler (kinases); Cerep (receptors and ion channels)
In words: Millipore kinase panel. The series is classed as biochemical. Particulars: read-out: % Control.

The target in another series is T18, SYK (Homo sapiens, UniProt P43405).
T18 construct: purchased Millipore KinaseProfiler (kinases); Cerep (receptors and ion channels)
The series is described as follows: Millipore kinase panel. It counts as biochemical. The settings on record: read-out: % Control.

A further series addresses T19, MTOR/FKBP12 (Homo sapiens, UniProt P42345).
T19 construct: purchased Millipore KinaseProfiler (kinases); Cerep (receptors and ion channels)
In words: Millipore kinase panel. The series is classed as biochemical. The settings on record: read-out: % Control.

The target in the next series is T20, DDR2 (Homo sapiens, UniProt Q16832).
T20 construct: purchased Millipore KinaseProfiler (kinases); Cerep (receptors and ion channels)
In words: Millipore kinase panel. It counts as biochemical. Particulars: read-out: % Control.

In another series the target is T21, CAMKIIGAMMA (Homo sapiens, UniProt Q13555).
T21 construct: purchased Millipore KinaseProfiler (kinases); Cerep (receptors and ion channels)
The series is described as follows: Millipore kinase panel. It counts as biochemical. The settings on record: read-out: % Control.

In a further series the target is T22, PI3K DELTA (Homo sapiens, UniProt O00329).
T22 construct: purchased Millipore KinaseProfiler (kinases); Cerep (receptors and ion channels)
The series is described as follows: Millipore kinase panel. It counts as biochemical. The settings on record: read-out: % Control.

A further series concerns the target T23, PKCBII (Homo sapiens, UniProt P05771).
T23 construct: purchased Millipore KinaseProfiler (kinases); Cerep (receptors and ion channels)
The series is described as follows: Millipore kinase panel. The settings on record: read-out: % Control. The series is classed as biochemical.

A further series has as its target T24, BTK(R28H) (Homo sapiens, UniProt Q06187, R28H).
T24 construct: purchased Millipore KinaseProfiler (kinases); Cerep (receptors and ion channels)
The series is described as follows: Millipore kinase panel. Particulars: read-out: % Control. It counts as biochemical.

The target in a further series is T25, EGFR(T790M) (Homo sapiens, UniProt P00533, T790M).
T25 construct: purchased Millipore KinaseProfiler (kinases); Cerep (receptors and ion channels)
In words: Millipore kinase panel. The series is classed as biochemical. The settings on record: read-out: % Control.

The test system of a further series is RKO-F1522 cells. The series is described as follows: EF1-α promoter firefly luciferase control reporter. Particulars: Homo sapiens, read-out: IC50, firefly luciferase reporter downstream of the EF1-α promoter. A general note: A reporter such as luciferase makes a cellular process visible.
Another series deals with T26, CK1GAMMA2 (Homo sapiens, UniProt P78368).
T26 construct: purchased Millipore KinaseProfiler (kinases); Cerep (receptors and ion channels)
T26 sequence (P78368 whole entry): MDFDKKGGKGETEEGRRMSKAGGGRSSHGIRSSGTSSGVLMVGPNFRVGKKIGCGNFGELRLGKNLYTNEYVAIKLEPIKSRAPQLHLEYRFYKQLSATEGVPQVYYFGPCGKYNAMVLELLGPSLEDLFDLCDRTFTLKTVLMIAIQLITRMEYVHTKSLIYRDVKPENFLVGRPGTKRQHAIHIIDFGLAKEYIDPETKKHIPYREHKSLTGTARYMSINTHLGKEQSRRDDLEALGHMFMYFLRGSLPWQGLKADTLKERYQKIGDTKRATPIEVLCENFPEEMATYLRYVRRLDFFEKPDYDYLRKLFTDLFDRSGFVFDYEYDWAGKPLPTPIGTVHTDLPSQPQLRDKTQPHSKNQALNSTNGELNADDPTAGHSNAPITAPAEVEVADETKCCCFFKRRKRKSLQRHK
The series is described as follows: Millipore kinase panel. The series is classed as biochemical. The settings on record: read-out: % Control.

For a further series, the target named is T27, PKCDELTA (Homo sapiens, UniProt Q05655).
T27 construct: purchased Millipore KinaseProfiler (kinases); Cerep (receptors and ion channels)
The series is described as follows: Millipore kinase panel. The settings on record: read-out: % Control. The series is classed as biochemical.

A word on the IC50: it is the concentration that inhibits the measured activity by half.

T19 sequence (P42345 1362-2549 limits assumed): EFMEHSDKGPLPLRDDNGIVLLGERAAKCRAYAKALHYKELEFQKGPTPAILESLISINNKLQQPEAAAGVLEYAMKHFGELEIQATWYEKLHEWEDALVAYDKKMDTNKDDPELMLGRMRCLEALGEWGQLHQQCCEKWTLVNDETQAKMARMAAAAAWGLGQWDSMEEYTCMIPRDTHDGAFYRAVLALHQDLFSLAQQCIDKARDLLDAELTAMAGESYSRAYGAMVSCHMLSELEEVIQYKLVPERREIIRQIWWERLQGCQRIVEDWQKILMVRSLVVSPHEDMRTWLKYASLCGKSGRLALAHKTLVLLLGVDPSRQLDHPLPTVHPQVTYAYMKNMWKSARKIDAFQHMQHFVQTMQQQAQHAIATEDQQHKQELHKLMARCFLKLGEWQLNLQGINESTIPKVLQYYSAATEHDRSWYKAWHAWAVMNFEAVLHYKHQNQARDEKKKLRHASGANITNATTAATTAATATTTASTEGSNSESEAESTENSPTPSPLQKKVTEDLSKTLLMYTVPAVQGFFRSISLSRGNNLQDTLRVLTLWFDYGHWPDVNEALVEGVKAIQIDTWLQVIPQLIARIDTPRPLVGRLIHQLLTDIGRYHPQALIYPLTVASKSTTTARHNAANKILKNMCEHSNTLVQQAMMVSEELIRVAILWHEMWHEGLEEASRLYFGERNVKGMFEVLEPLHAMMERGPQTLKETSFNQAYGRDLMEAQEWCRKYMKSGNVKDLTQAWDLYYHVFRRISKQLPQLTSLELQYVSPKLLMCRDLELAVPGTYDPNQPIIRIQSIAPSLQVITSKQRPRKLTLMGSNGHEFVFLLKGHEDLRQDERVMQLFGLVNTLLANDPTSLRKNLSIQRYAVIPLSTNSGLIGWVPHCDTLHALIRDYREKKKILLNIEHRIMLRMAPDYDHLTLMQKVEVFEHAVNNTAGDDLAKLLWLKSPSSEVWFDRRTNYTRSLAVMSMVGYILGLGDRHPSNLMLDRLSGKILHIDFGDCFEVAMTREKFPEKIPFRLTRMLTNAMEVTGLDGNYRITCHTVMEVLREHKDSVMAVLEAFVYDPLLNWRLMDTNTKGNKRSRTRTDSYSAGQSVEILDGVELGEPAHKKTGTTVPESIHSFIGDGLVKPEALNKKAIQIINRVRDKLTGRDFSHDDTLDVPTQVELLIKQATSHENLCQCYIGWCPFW
T5 sequence (P10721 26-976 D816H): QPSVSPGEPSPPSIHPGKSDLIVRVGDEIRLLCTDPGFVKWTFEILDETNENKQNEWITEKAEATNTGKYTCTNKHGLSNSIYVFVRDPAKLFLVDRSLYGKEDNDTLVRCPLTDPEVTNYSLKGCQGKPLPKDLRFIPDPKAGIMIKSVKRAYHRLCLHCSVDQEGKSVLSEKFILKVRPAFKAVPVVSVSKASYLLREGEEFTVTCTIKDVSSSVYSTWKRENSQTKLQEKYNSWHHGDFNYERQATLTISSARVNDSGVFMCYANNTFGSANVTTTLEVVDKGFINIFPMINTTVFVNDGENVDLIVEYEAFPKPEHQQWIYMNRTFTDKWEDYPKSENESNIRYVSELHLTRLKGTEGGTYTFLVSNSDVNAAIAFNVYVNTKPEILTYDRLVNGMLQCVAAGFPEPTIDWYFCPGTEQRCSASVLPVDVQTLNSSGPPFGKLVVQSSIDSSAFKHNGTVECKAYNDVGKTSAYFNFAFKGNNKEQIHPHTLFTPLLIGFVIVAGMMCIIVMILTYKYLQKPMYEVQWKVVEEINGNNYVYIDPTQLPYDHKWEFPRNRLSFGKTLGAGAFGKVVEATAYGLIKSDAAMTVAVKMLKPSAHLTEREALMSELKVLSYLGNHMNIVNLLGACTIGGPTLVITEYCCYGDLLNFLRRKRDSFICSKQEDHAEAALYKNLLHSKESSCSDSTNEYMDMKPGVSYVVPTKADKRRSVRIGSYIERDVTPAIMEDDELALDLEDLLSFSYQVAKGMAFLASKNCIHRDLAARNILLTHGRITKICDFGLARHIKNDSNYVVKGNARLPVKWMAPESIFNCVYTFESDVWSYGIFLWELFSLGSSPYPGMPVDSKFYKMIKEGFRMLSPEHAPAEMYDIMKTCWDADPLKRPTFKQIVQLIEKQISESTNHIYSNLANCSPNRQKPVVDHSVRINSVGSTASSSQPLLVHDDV
T17 sequence (P10721 26-976 V560G): as the sequence (P10721 26-976 D816H) above, with V535G, H791D counted along it

As to `O=C1NCCC12CCN(c1c(Cl)cncc1-c1ccc(N3CCOCC3)cc1)CC2` [Compound 44, 8-(3-Chloro-5-(4-morpholin-4-ylphenyl)pyridin-4-yl)-2,8-diazaspiro[4.5]decan-1-one], the remaining activity at 1 µM at PAK3 is 17%; on LYN, 31%; at GSK3BETA it was -25%; at MAPK2, 10%. Further, the “% Inhibition of Control Specific Binding” value in the series with Cl- channel (GABA-gated) is listed as 14%. Further, in the series “Plasma stability”, the plasma instability result is recorded as “no plasma instability was observed”. In addition, in series [1], the “glutathione adduct in an in vitro reactive metabolite assay” value is given as “generated a glutathione adduct”.
`Cn1cc(-c2ccc(-c3cncc(Cl)c3N3CCC4(CCNC4=O)CC3)cc2)cn1` [Compound 74, 8-(3-Chloro-5-(4-(1-methyl-1H-pyrazol-4-yl)phenyl)pyridin-4-yl)-2,8-diazaspiro[4.5]decan-1-one]: the remaining activity at 1 µM at CKIT(D816H) was -7%; at FLT3(D835Y), -11%; at TIE2(R849W), -6%; at PKCBETAI, -23%; at PKCIOTA it was -25%; at PKBBETA, -13%. In addition, the remaining activity at 1 µM at AURKA was 6%; on CK1GAMMA3, 1%; at PKCEPSILON it was -22%; on FMS(Y969C), -31%; on P70S6K, -15%; on NEK11, 7%. The remaining activity at 1 µM is -5% at CKIT(V560G); 5% at SYK; 11% on MTOR/FKBP12; 5% at DDR2; 1% at CAMKIIGAMMA; -2% on PI3K DELTA. For the same compound, the remaining activity at 1 µM on PKCBII was -3%; on BTK(R28H) it was -4%; on EGFR(T790M), 0%; at CK1GAMMA2, 10%; on PKCDELTA, -37%. The IC50 against CYP450 2B8 is above 20 µM; in the series on RKO-F1522 cells, above 10 µM. Further, the “% Inhibition of Control Specific Binding” value in the series on BZD (central) was determined as 18%.
